“Also recorded” adds a separate entry of the source. Like-named read-outs stand apart in the source and are kept apart here.

The target in assay [1] is T1, bovine carboxypeptidase A (Bos taurus, UniProt P00730).
T1 construct: purchased Sigma
T1 sequence (P00730 111-419): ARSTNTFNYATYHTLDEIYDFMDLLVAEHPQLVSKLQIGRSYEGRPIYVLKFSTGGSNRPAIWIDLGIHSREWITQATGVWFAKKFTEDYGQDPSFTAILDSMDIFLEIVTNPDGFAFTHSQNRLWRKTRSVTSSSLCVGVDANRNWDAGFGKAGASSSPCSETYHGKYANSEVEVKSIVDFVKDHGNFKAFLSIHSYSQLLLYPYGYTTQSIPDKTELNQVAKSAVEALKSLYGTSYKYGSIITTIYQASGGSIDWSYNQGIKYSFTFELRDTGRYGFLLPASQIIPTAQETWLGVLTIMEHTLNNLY
Kind of assay: Bovine carboxypeptidase A assay (hippuryl-L-phenylalanine hydrolysis), specificity test. As to conditions: 25 nM; 1 mM hippuryl-L-phenylalanine; 25° C., pH=7.5. The assay is classed as biochemical. Here is the method:
Method for assay of bovine carboxypeptidase A. The assay of bovine carboxypeptidase A is based on the method of Folk and Schirmer (1963). The rate of hydrolysis of hippuryl-L-phenylalanine is determined by monitoring the increase in absorbance at 254 nm ([…], pH=7.5). The enzyme was dissolved in 10% lithium chloride to a concentration of 1-3 units per mL. Hippuryl-L-phenylalanine (0.001 M) was dissolved in 0.05 M TrisHCl, pH=7.5 with 0.5 M sodium chloride. In a 1 cm of cuvette, 1.0 mL of substrate was added and incubated in the spectrophotometer at 25° C. for 3-4 minutes to reach temperature equilibration and establish blank rate. Fifty μL of diluted enzyme was added to record increase in A254. The enzyme was preincubated with/without the inhibitor in the buffer for 15 min. at 25° C.

In assay [2] the target is B. cereus 5/B/6 metallo-β-lactamase (Bacillus cereus, UniProt P14488). The assay is classed as biochemical. As to conditions: for time dependence of the reversible inhibition: 50 mM MOPS, cephalosporin C; for time dependence of the reversible inhibition / IC50: pH=7.0; for inhibition pattern from steady-state kinetic study: Lineweaver-Burk plot; for IC50: enzyme preincubated 15 min at 30° C. in 50 mM MOPS, 4 mM cephalosporin C.
Chain of B. cereus 5/B/6 metallo-β-lactamase (P14488 30-256): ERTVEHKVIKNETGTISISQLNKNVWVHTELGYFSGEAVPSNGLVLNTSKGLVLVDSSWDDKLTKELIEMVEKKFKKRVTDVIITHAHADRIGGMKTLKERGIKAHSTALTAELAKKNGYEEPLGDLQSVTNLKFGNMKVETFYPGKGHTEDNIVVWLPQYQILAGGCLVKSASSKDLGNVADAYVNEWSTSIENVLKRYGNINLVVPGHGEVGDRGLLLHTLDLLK

Assay [3] addresses metallo-β-lactamase from B. fragilis (Bacteroides fragilis, UniProt P25910). To be noted: NMR characterization; Scrofani et al. (1999); cited from earlier work.
Assay [4] concerns the target metallo-β-lactamase from Stenotrophomonas maltophilia (Stenotrophomonas maltophilia, UniProt P52700). As to conditions: Yang and Crowder (1999); cited from earlier work.
For another assay, the system named is class B β-lactamases. As to conditions: cited from earlier work.
The target in assay [5] is metallo-β-lactamases (Bacillus cereus enzyme) (Bacillus cereus, UniProt P04190). To be noted: Mollard et al. (2001); cited from earlier work.
Chain of metallo-β-lactamases (Bacillus cereus enzyme) (P04190 31-257): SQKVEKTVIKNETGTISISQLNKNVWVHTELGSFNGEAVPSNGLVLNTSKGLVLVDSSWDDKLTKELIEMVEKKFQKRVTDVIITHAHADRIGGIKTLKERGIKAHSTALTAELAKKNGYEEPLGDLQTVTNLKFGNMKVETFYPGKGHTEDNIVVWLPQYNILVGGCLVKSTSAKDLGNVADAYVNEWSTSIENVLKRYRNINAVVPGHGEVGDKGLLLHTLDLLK
Where [6] appears, read: intercept replot of Lineweaver-Burk data, read-out: Ki′ (dissociation constant for the inhibitor from the enzyme-substrate-inhibitor complex).
[7] abbreviates: slope replot of Lineweaver-Burk data, read-out: Ki (dissociation constant for the inhibitor from the enzyme-inhibitor complex).

Chain of metallo-β-lactamase from Stenotrophomonas maltophilia (P52700 34-290): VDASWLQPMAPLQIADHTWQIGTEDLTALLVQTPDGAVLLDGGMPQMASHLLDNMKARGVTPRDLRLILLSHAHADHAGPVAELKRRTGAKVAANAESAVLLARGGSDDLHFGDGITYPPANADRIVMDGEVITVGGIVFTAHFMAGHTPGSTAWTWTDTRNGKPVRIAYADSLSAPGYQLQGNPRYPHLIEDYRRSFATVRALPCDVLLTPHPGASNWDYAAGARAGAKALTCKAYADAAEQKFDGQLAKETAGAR
Chain of metallo-β-lactamase from B. fragilis (P25910 19-249): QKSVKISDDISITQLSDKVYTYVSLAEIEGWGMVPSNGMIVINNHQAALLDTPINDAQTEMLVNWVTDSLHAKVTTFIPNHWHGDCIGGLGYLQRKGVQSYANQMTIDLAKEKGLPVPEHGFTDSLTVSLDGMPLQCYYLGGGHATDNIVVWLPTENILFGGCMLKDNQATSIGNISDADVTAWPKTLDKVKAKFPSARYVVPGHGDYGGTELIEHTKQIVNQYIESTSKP

What is called IC50 is the midpoint of a concentration-inhibition curve. A lower IC50 goes with higher potency. As a reminder, the Ki is the equilibrium dissociation constant of an inhibitor or competing ligand from its target. As for “5′-d(AACCAAACTTGGATCGGTGCACATGTCGAA)-3′ [30-mer]”, the “effect on the activity of the carboxypeptidase A” value in assay [1] is reported as “no effect; also recorded: did not show any inhibition”. In addition, the “time dependence of the reversible inhibition” value in assay [2] (0.5 nM the 30-mer) is given as “time-independent; also recorded: not time-dependent”. In assay [2], the “inhibition pattern from steady-state kinetic study” value (from here on “inhibition pattern”) was “noncompetitive inhibition” and the IC50 turned out to be 1.2 nM. Moreover, the Ki in assay [2] (setting [6]) came to 11 nM. For the same compound, the Ki in assay [2] (setting [7]) worked out at 0.92 nM.
With 5′-d(CCAAACTTGG)-3′ [10-mer], in assay [1], the “effect on the activity of the carboxypeptidase A” value is on record as “no effect; also recorded: did not show any inhibition”. For the same compound, the “time dependence of the reversible inhibition” value in assay [2] (1.0 nM of the 10-mer) is “time-independent; also recorded: not time-dependent”. In addition, the “inhibition pattern” value in assay [2] was “noncompetitive inhibition”. Besides, the “fold lower Ki than the Ki reported for R-thiomandelic acid” value in assay [2] (vs. Mollard et al. (2001)) was found to be 290 fold.
As to `OCCS` [2-mercaptoethanol, reference compound], in assay [2], the “inhibition pattern” value was “noncompetitive inhibition” and 4000 nM corresponded to half-maximal inhibition (IC50). In addition, the inhibition constant Ki in assay [2] (setting [6]) came out at 4000 nM. Also, the Ki in assay [2] (setting [7]) is 2000 nM.
Turning to `CC1(C)SCN(C(=O)[C@@H](CS)Cc2ccccc2)[C@H]1C(=O)O` [3-[2′-(S)-benzyl-3′-mercaptopropanoyl]-4-(S)-carboxy-5,5-dimethylthiazolidine], the “binding to metallo-β-lactamase” value in assay [3] was ““tightly” binds”.
With `O=C(O)CN(CCN(CC(=O)O)CC(=O)O)CC(=O)O` [EDTA, reference compound], in assay [2], the “inhibition pattern” value is “noncompetitive inhibition” and half-maximal inhibition (IC50) was put at 3100 nM. The Ki in assay [2] (setting [6]) was found to be 2900 nM. Further, the Ki in assay [2] (setting [7]) turned out to be 750 nM.
Regarding `O=C(Cc1ccccc1)NCCS` [N-(2′-mercaptoethyl)-2-phenylacetamide], in assay [4], the Ki is 50000 ± 3000 nM and the type of inhibition result is “competitive inhibitors”.
In the case of `O=C(O)[C@H]1/C(=C/CO)O[C@@H]2CC(=O)N21` [clavulanic acid], the “inhibition of class B β-lactamases” value in the assay with class B β-lactamases was “do not inhibit”.
As for `O=C1C[C@H]2SC=CN12` [penem], the “inhibition of class B β-lactamases” value with class B β-lactamases is on record as “do not inhibit”.
For the compound N-benzylacetyl-D-alanylthioacetic acid, in assay [4], the Ki was 1600 ± 300 nM and the type of inhibition entry is “competitive inhibitors”.
Consider R-thiomandelic acid, for which the Ki in assay [5] is 90 nM.

(Values after US7456274B2, “Inhibition of metallo-β-lactamase” (priority 2003, dated 2008).)
